Columns and labels:
[1] = target: alkaline phosphatase (Bos taurus, UniProt P19111); assay: Effect of peroxidase enhancers on observed alkaline phosphatase activity in dioxetane formulation containing PBTBQ; format: biochemical; details: for Response, Percent: 33.3 pg alkaline phosphatase, 30 minutes, net signal relative to control solution (CDP-Star plus Nitroblock II) set to 100%; for enhancement of the observed phosphatase activity: relative to control solution
Method: (§1) A variety of known enhancers of peroxidase activity were tested for their effect on the observed alkaline phosphatase activity in a dioxetane formulation containing the PBTBQ alkaline phosphatase enhancement agent. […] 10 μl of TBS served as a background control. 40 mM stock solutions as ws-PT, ws-PT-N-C4-S-C2Cl, and ws-PT Plus (CP-Br) were prepared in water. A 50 mM solution of DMAP was prepared in water. A 20 mM ws-PT Plus (MPA Cl) was prepared in water. 40 mM solutions of MPT and CPPT were prepared in methanol. (See Table 3 for acronym identification of these peroxidase enhancers, some of which are substantially water-soluble(ws).) The control solution was prepared by mixing 2.85 ml of CDP-Star RTU (Tropix Product No. MS100R) with 0.15 ml of NitroBlock II (Tropix Product No. LNX200). For the test solutions, 112 μl of the peroxidase enhancer stock solutions were added to 3 ml of the control solution in the case of the ws-PT, MPT, ws-PT-NC4S, ws-PT-Plus (CP-Br), or CPPT; for the ws-PT-Plus (MPS-C) 224 μl of the stock was added to 3 ml of the control solution; for the DMAP, 150 μl of the stock was added to 3 ml of the control solution; for the test solution containing DMAP and ws-PT, 150 μl of the DMAP stock and 112 μl of the ws-PT stock was added to 3 ml of the control solution.
To the wells of the microplate containing the alkaline phosphatase aliquots, the control and test formulations were added at 100 μl per well, mixed for approximately one minute, and allowed to react for 30 minutes at which time the chemiluminescent signal was measured on a Berthold EGG Luminometer using a 0.1 second integration time. Table 3 illustrates the relative signal intensities obtained using the response from the control solution set to 100%. The net signal of each solution (background subtracted) was used for these calculations. […] Consequently, the relative response factors for alkaline phosphatase and peroxidase activity to each other in the present invention can be modulated by the choice of the peroxidase enhancer used in the substrate solution formulation of this invention.

[2] = Visual appearance (flocculation) of test solutions; format: physicochemical; details: enhancer stock added to CDP-Star RTU/NitroBlock II control solution
Method: as §1

alkaline phosphatase, sequence (P19111 20-506 limits assumed): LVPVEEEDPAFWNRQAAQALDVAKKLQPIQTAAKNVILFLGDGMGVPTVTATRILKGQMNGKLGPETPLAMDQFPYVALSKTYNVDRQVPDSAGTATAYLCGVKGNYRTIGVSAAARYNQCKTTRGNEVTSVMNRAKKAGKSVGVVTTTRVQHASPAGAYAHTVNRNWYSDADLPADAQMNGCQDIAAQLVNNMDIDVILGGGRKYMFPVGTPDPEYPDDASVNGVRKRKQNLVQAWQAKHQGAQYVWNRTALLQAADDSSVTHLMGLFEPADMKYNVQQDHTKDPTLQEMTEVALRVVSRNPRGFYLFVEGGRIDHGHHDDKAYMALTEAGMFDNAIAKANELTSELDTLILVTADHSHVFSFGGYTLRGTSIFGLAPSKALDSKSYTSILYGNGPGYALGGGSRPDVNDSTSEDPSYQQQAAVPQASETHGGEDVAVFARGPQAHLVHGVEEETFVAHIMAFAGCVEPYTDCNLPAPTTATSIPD

Row | SMILES | Response, Percent [1] [%] | enhancement of the observed phosphatase activity [1] | appearance of test solution [2]
1 | O=C(O)CCCN1c2ccccc2Sc2ccccc21 [CPPT, 4-(phenothiazin-10-yl)butanoic acid] | 104 | – | –
2 | CNC.c1ccncc1 [DMAP, Dimethylamine pyridine] | 99 | – | –
3 | CN1c2ccccc2Sc2ccccc21 [MPT, 10-methyl-10H-phenothiazine] | 198 | significant enhancement | visible flocculation
4 | C[N+](C)(C)CCCN1c2ccccc2Sc2ccc(Cl)cc21.[Br-] [ws-PT Plus (CP—Br^−), [3-(2-chlorophenothiazin-10-yl)-propyl]trimethyl-ammonium bromide] | 85 | – | –
5 | C[N+](C)(C)CCCN1c2ccccc2Sc2ccccc21.[Cl-] [ws-PT Plus (MPA^+Cl^−), Trimethyl-(3-phenothiazin-10-yl-propyl)ammonium chloride] | 70 | – | –
6 | O=S(=O)([O-])CCCN1c2ccccc2Sc2ccccc21.[Na+] [ws-PT, Sodium (3-phenothiazine-10-yl)-propane-1-sulfonate] | 207 | significant enhancement | visible flocculation
7 | O=S(=O)([O-])CCCCN1c2ccccc2Sc2ccc(Cl)cc21.[Na+] [ws-PT—N—C4S—C2—Cl, Sodium 4-(2-chlorophenothiazin-10-yl)butane-1-sulfonate] | 218 | significant enhancement | –

— patent publication US6852503B1, “Compositions and methods for utilizing mixed substrate solutions of luminols and dioxetanes” (Pierce Biotechnology, Inc., priority 2001, dated 2005)
